From PubChem BioAssay (NCI)
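Values below derive from 48-hour exposures of cells grown in 96-well plates, with endpoints linearly interpolated between the two concentrations bracketing the appropriate inhibition level. GI50 is the concentration that inhibits growth by half. TGI denotes the concentration required for complete inhibition of growth.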

Columns and labels:
Assay in all cases: NCI-60 cell line screen, 48 h
ACHN renal = system: ACHN renal
OVCAR-3 ovarian = system: OVCAR-3 ovarian
OVCAR-8 ovarian = system: OVCAR-8 ovarian
SR leukemia = system: SR leukemia
SW-620 colon = system: SW-620 colon
SK-MEL-5 melanoma = system: SK-MEL-5 melanoma
SNB-19 CNS = system: SNB-19 CNS
CAKI-1 renal = system: CAKI-1 renal
HS 578T breast = system: HS 578T breast
OVCAR-5 ovarian = system: OVCAR-5 ovarian
A498 renal = system: A498 renal

SMILES | TGI (ACHN renal) [µM] | TGI (OVCAR-3 ovarian) [µM] | TGI (OVCAR-8 ovarian) [µM] | TGI (SR leukemia) [µM] | TGI (SW-620 colon) [µM] | TGI (SK-MEL-5 melanoma) [µM] | TGI (SNB-19 CNS) [µM] | TGI (CAKI-1 renal) [µM] | TGI (HS 578T breast) [µM] | TGI (OVCAR-5 ovarian) [µM] | TGI (A498 renal) [µM] | GI50 (ACHN renal) [µM] | GI50 (OVCAR-3 ovarian) [µM] | GI50 (CAKI-1 renal) [µM] | GI50 (OVCAR-8 ovarian) [µM] | GI50 (SW-620 colon) [µM] | GI50 (OVCAR-5 ovarian) [µM] | GI50 (SK-MEL-5 melanoma) [µM]
CCCC(C)n1c(C)nc2c1C(=O)c1ccccc1C2=O (stereo not given) | 95.8 | 85.1 | > 100 | > 100 | > 100 | 30 | > 100 |  |  |  |  |  |  |  |  |  |  | 
COc1cc([C@@H]2c3cc4c(cc3[C@@H](Nc3ccccc3C(=O)c3ccccc3)[C@H]3COC(=O)[C@H]23)OCO4)cc(OC)c1OC | > 100 | > 100 | > 38.3 |  | > 81.6 | 2.93 | > 100 | > 100 | > 100 | > 100 |  |  |  |  |  |  |  | 
CSC1C(=O)Nc2ccc3ccccc3c21 (stereo not given) | 92.4 |  | 34.9 |  | 49 | 57.4 | > 100 | 38.9 | 46 | > 100 |  |  |  |  |  |  |  | 
COP(=O)(OC)C(NC(=O)C(F)(F)F)(c1ccccc1)C(F)(F)F (stereo not given) | > 100 | > 100 | > 100 | > 100 | > 100 | > 100 | > 100 | > 100 |  | > 100 | > 100 |  |  |  |  |  |  | 
COc1cc2cc(C(=O)N3CC(CCl)c4c3cc(NC(=O)OCc3ccc([N+](=O)[O-])cc3)c3ccccc43)[nH]c2c(OC)c1OC (stereo not given) | > 34.5 | > 100 | > 100 |  | > 100 | > 100 | > 100 | > 39.4 | > 100 | > 100 |  |  |  |  |  |  |  | 
O=C1C=CC(=C(c2ccc(O)cc2)c2ccc(O)cc2)C=C1 | 28.7 | 19.9 | 25.2 | 7.37 | 25.5 | 19.8 | 29.3 | 32.7 |  | 32.3 | 32 |  |  |  |  |  |  | 
CC(=O)OC(Cc1ccc2ccccc2n1)(C(F)(F)F)C(F)(F)F | 14.4 | 1.99 | 3.96 |  | 12 | 1.38 | 14.7 | 2.96 | 6.58 | 10.2 | 14.6 |  |  |  |  |  |  | 
COc1cc(C2=NNC(=O)c3ccccc3N2c2nc(-c3cccs3)nc3ccc(Br)cc23)cc(OC)c1OC | 63.3 | 27.8 | > 100 |  | > 100 | 50.4 | > 100 | 73.1 | 44.1 | > 100 | 91.9 |  |  |  |  |  |  | 
CCCCCCCCCCCCc1ccc(S(=O)(=O)O)cc1.[Zn+2] | > 100 | > 100 | > 100 |  | > 100 | > 100 | > 100 | > 100 | > 100 | > 100 | 95.9 |  |  |  |  |  |  | 
O=c1oc2ccc([N+](=O)[O-])cc2c(Nc2ccc3c(c2)Sc2ccccc2O3)c1[N+](=O)[O-] | 72 | 31 | 77.3 | 55.2 | 80.6 | 41.1 | 36.2 | 50.6 | 90.9 | 47.2 |  |  |  |  |  |  |  | 
CC(=O)c1ccccc1NCC(=O)Nn1cnc2ccc(S(=O)(=O)Nc3ccccc3C(C)=O)cc2c1=O | > 100 | > 100 | > 100 | > 100 | > 100 |  | > 100 | > 100 | > 100 | > 100 |  |  |  |  |  |  |  | 
O=[N+]([O-])c1ccccc1S(=O)(=O)c1ccccc1 | > 100 | > 100 | > 100 | > 100 | > 100 | > 100 |  |  |  | > 100 | > 100 |  |  |  |  |  |  | 
O=C(c1ccccc1)n1cc(-c2ccccc2)c2c(=O)[nH]cnc21 | > 100 | > 100 | > 100 |  | > 100 | > 100 | > 100 | > 100 | > 100 | > 100 | > 100 |  |  |  |  |  |  | 
COC(=O)[C@H]1NC(=O)CCSSC1(C)C | > 100 | > 100 | > 100 |  | > 100 | > 100 | > 100 | > 100 | > 100 | > 100 | > 100 |  |  |  |  |  |  | 
Cc1ccc(NC(=O)C(Cc2c[nH]c3ccccc23)NC(=O)Oc2ccccc2)cc1C (stereo not given) | > 100 | > 100 | > 100 |  | > 100 | > 100 | > 100 | > 100 | > 100 | > 100 | 88.4 |  |  |  |  |  |  | 
Cc1ccc2c(=O)c(C(=O)Nn3c(C)csc3=S)c[nH]c2n1 | > 100 | > 100 | > 100 |  | > 100 | > 100 | > 100 | > 100 | > 100 | > 100 | > 100 |  |  |  |  |  |  | 
CCOP(=O)(OCC)C(c1ccccc1)N(C(=O)NC(F)(F)F)c1cccc(F)c1 (stereo not given) | > 100 | > 100 | > 100 | > 100 | > 100 | > 100 | > 100 | > 100 | > 100 |  |  |  |  |  |  |  |  | 
COc1cc(CNc2cnc3cc(N)ccc3n2)cc(OC)c1OC | > 100 | 41.1 | > 100 | > 100 | > 100 | > 100 | > 100 | > 100 |  | > 100 | > 100 |  |  |  |  |  |  | 
CCO[C@@]1(COCc2ccccc2)OC(=O)C[C@@H]1N1C(=O)OC[C@@H]1c1ccccc1 | > 100 | > 100 | > 100 |  | > 100 | > 100 | > 100 | 76.4 |  | > 100 | > 100 |  |  |  |  |  |  | 
CN(CCO)CCCC1COc2ccccc2O1 (stereo not given) | > 100 | > 100 | > 100 | > 100 | > 100 | > 100 | > 100 | > 100 |  | > 100 |  |  |  |  |  |  |  | 
C=CCN1C(=O)/C(=C/c2ccco2)N=C1SC1OC(COC(C)=O)C(OC(C)=O)C(OC(C)=O)C1OC(C)=O (stereo not given) | > 100 | > 100 | > 100 | > 100 | > 100 | > 100 |  | > 100 |  | > 100 | > 100 |  |  |  |  |  |  | 
COc1ccc(-c2ccc(-c3ccc(C(=N)N)nc3)s2)cc1Cl | 3.15 | 3.24 | 7.13 |  | 3.37 | 3.32 |  | 3.12 |  | 3.32 |  | 1.77 | 1.83 | 1.74 | 2.6 | 1.79 | 1.86 | 1.82
